For one test, the system named is Hpac/ZR75.1 cells. Put plainly: Cell survival, Sulforhodamine B assay (SRB assay), cancer cells not exhibiting recruitment of MDM2 to chromatin. Format: cell-based. On the procedure: (§1) Cell survival after MDM2 inhibitor treatment (IC50) was determined using the Sulforhodamine B assay (SRB assay).
(§2) Cells were seeded in 96-well plates (Sarsted) in complete DMEM medium as to obtain triplicates for each condition (5 000 cells/well). After 24 hours, serial dilutions of the indicated compounds were added to the cells. Then 48 hours later, cells were fixed by adding a 10% Trichloroacetic acid solution and stained with a 0,4% SRB solution in 1% acetic acid. Fixed SRB was finally dissolved in 10 mM Tris-HCl solution and 560 nm absorbance was read using a PHERAstar FSX plate reader.

In another test the target is T1, Chromatin-MDM2 (Homo sapiens, UniProt Q00987).
T1 construct: endogenous in cells; host or cells: IB111
The test can be described thus: MDM2 degradation by western blot and immunofluorescence, chromatin-bound MDM2 (IB111 cells dependent on C-MDM2). The class given is cell-based. The note with it: IB111 (presence of C-MDM2), degradation efficacy; for Dmax: human. On the procedure:
(§3) MDM2 degradation is measured by western blot and immunofluorescence.
(§4) Cells were seeded in 6-well plates (Sarsted) in complete DMEM medium as to obtain triplicates for each condition (500 000 cells/well). After 24 hours, the compounds were added to the cells. Then, 18 hours later cells were collected for western blotting or immunofluorescence. • Western Blot: Cells were collected in Laemmli buffer, boiled and analyzed in 8% acrylamide gel. • Immunofluorescence: Cancer cells were fixed with paraformaldehyde (PFA) 4% for 15 minutes then permeabilized for 15 minutes at RT with phosphate-buffered saline (PBS) Triton 0.1% and blocked with Phosphate buffered saline-[…] (PBS-BSA) 0.3% for 1 hour at RT before overnight incubation at 4° C. with an anti-mouse monoclonal antibody against MDM2 (MABE340 Millipore). Immunodetection was performed using an Alexa 488-conjugated anti-mouse IgG antibody (Thermo Fisher) for 45 minutes at RT. Cover glasses were mounted with Mowiol (Biovalley) and DAPI (Sigma) before analysis on a Zeiss apotome.

In a further test the target is T2, Cytoplasmic-MDM2 (Homo sapiens, UniProt Q00987).
T2 construct: endogenous in cells; host or cells: Hpac/ZR75.1
Put plainly: MDM2 degradation by western blot and immunofluorescence, cytoplasmic MDM2 (Hpac/ZR75.1 cells, absence of C-MDM2). Format: cell-based. The conditions noted are these: Hpac/ZR75.1 (absence of C-MDM2), degradation efficacy; for Dmax: human. On the procedure:
as §3, §4

The subject of the next test is liposarcoma cells IB111. The test can be described thus: In vivo anti-tumor efficacy in nude mice engrafted with liposarcoma cells IB111. The conditions noted are these: 20 mg/kg i.p. daily for 3 weeks, from tumor 100 mm^3. On the procedure:
In order to support the in vitro results, in vivo evaluation of the anti-tumor efficacy was performed on compound (4) according to the present invention having evidenced the antitumoral activity in examples 9 and 10 above.
10 mice per group were engrafted with liposarcoma cells IB111. Mice were housed in a pathogen-free barrier facility in accordance with the regional ethics committee for animal [COMPOUND LEFT OUT] (n° CEEA-LR-12067). When tumor reached 100 mm^3, the compound of formula (I) was administered by intra peritoneal i.p. injection at the dose of 20 mg/kg daily for 3 weeks.

A further test relates to IB111 cells. Put plainly: Cell survival, Sulforhodamine B assay (SRB assay), cancer cells exhibiting recruitment of MDM2 to chromatin. The class given is cell-based. As to the method: as §1, §2
In the next test the test system is MDM2 protein. The conditions noted are these: WO2016/049453 and Wang et al. 2014; cited from earlier work.
In another test the test system is MDM2-p53 interaction. The conditions noted are these: WO2016/049453 and Wang et al. 2014; cited from earlier work.
Test [1] deals with p53 wild type, p53 mutant and p53 null cancer cells. The conditions noted are these: cited from earlier work.

The source of these data is patent US20260315461A1, “NEW 5H-PYRROLO[3,2-B:5,4-C']DIPYRIDINE DERIVATIVES AND 6,7,8,9-TETRAHYDRO-5H-PYRROLO[3,2-B:5,4-C']DIPYRIDINE USEFUL IN THE TREATMENT OF CANCER” (INSTITUT REGIONAL DU CANCER DE MONTPELLIER, priority 2023, published 2026).

The structures appear in SMILES notation. pIC50: −log10 of the molar value. Counter-ions that a name gives are not always drawn.

T2 sequence (Q00987 whole entry): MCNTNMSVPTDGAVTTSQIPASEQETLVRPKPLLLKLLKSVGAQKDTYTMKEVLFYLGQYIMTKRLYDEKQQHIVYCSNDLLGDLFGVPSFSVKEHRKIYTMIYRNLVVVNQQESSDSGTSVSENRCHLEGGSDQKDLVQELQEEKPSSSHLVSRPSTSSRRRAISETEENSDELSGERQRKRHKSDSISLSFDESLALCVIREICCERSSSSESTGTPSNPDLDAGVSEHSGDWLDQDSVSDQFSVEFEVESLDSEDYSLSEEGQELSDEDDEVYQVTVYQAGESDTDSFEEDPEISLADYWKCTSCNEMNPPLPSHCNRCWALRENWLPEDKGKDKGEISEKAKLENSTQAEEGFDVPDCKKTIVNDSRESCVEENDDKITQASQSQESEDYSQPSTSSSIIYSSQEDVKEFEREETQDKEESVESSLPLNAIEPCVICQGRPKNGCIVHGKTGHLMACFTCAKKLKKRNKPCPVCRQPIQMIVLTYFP
T1 sequence (Q00987 whole entry): as above

As for `COc1ccc2[nH]c3c(-c4cccc5ccccc45)nccc3c2n1` [Compound 1, 2-methoxy-6-(naphthalen-1-yl)-5H-pyrrolo[3,2-b:5,4-c′]dipyridine], in the test with Hpac/ZR75.1 cells, the “efficacy on cancer cells not exhibiting recruitment of MDM2 to chromatin (cell survival)” value is recorded as “not efficient”. The Chromatin-MDM2 degradation result on Chromatin-MDM2 was “+++ (+++≥80%)”.

For the molecule `COc1ccc2[nH]c3c(-c4ccnc5nccnc45)nccc3c2n1` [Compound 3, 2-methoxy-6-(pyrido[2,3-b]pyrazin-8-yl)-5H-pyrrolo[3,2-b:5,4-c′]dipyridine], the Dmax at Cytoplasmic-MDM2 was below 25%; at Chromatin-MDM2 it was 25 to 40%.

As for `COc1ccc2[nH]c3c(-c4cccc5ccccc45)nccc3c2n1.Cl` [Compound 4, 2-methoxy-6-(naphthalen-1-yl)-5H-pyrrolo[3,2-b:5,4-c′]dipyridine hydrochloride], the Cytoplasmic-MDM2 degradation result at Cytoplasmic-MDM2 is “− (<25%: no degradation: indicated“−” in the table)”. Also, the “efficacy on cancer cells not exhibiting recruitment of MDM2 to chromatin (cell survival)” value in the test on Hpac/ZR75.1 cells is given as “not efficient”. Besides, the Chromatin-MDM2 degradation result at Chromatin-MDM2 is recorded as “+++ (+++≥80%)”. Besides, the tumor reduction result in the test with liposarcoma cells IB111 is “greater than 75%”.

As to `COc1ccc2[nH]c3c(-c4ccnc5ccccc45)nccc3c2n1` [Compound 6, 2-methoxy-6-(quinolin-4-yl)-5H-pyrrolo[3,2-b:5,4-c′]dipyridine], the greatest degradation seen (Dmax) on Cytoplasmic-MDM2 is below 25%; at Chromatin-MDM2, 25 to 40%.

In the case of `COc1ccc2[nH]c3c(-c4cccc5ccccc45)nccc3c2n1.O=C(O)/C=C/C(=O)O` [Compound 10, 2-methoxy-6-(naphthalen-1-yl)-5H-pyrrolo[3,2-b:5,4-c′]dipyridine fumarate], the Cytoplasmic-MDM2 degradation entry on Cytoplasmic-MDM2 is “− (<25%: no degradation: indicated“−” in the table)”. Further, the “efficacy on cancer cells not exhibiting recruitment of MDM2 to chromatin (cell survival)” value in the test with Hpac/ZR75.1 cells is listed as “not efficient”. Moreover, the Chromatin-MDM2 degradation entry at Chromatin-MDM2 is “+++ (+++≥80%)”.

The molecule `COc1ccc2[nH]c3c(-c4cccc5ccccc45)nccc3c2n1.O=C(O)CC(O)(CC(=O)O)C(=O)O` [Compound 11, 2-methoxy-6-(naphthalen-1-yl)-5H-pyrrolo[3,2-b:5,4-c′]dipyridine 2-hydroxypropane-1,2,3-tricarboxylate] displayed a Dmax at Cytoplasmic-MDM2 below 25%. For the same molecule, the “efficacy on cancer cells not exhibiting recruitment of MDM2 to chromatin (cell survival)” value in the test on Hpac/ZR75.1 cells is reported as “not efficient”. Besides, the Chromatin-MDM2 degradation result on Chromatin-MDM2 is given as “+++ (+++≥80%)”.

With `COc1ccc2[nH]c3c(-c4cccc5ccccc45)nccc3c2n1.O=P(O)(O)O` [Compound 12, 2-methoxy-6-(naphthalen-1-yl)-5H-pyrrolo[3,2-b:5,4-c′]dipyridine phosphate], the Cytoplasmic-MDM2 degradation result at Cytoplasmic-MDM2 is given as “− (<25%: no degradation: indicated“−” in the table)”. The “efficacy on cancer cells not exhibiting recruitment of MDM2 to chromatin (cell survival)” value with Hpac/ZR75.1 cells is “not efficient”.

In the case of `COc1ccc2[nH]c3c(-c4cccc5ccccc45)nccc3c2n1` [Compound 13, 2-methoxy-6-(naphthalen-1-yl)-5H-pyrrolo[3,2-b:5,4-c′]dipyridine sulfate], the Cytoplasmic-MDM2 degradation result on Cytoplasmic-MDM2 is reported as “− (<25%: no degradation: indicated“−” in the table)”. For the same molecule, at Chromatin-MDM2 (sulfate), the Chromatin-MDM2 degradation entry was “++ (40%≤++<80%)”.

On to `COc1ccc2[nH]c3c(-c4cccc5c4CCCC5)nccc3c2n1` [Compound 14, 2-methoxy-6-(5,6,7,8-tetrahydronaphthalen-1-yl)-5H-pyrrolo[3,2-b:5,4-c′]dipyridine], for which the figures for the maximal degradation (Dmax) on Cytoplasmic-MDM2 and on Chromatin-MDM2 were below 25% and at least 80%, respectively. Moreover, the “efficacy on cancer cells not exhibiting recruitment of MDM2 to chromatin (cell survival)” value in the test with Hpac/ZR75.1 cells is reported as “not efficient”.

As for `COc1ccc2[nH]c3c(-c4ccc(F)c5ccccc45)nccc3c2n1` [Compound 15, 6-(4-fluoronaphthalen-1-yl)-2-methoxy-5H-pyrrolo[3,2-b:5,4-c′]dipyridine], the figures for the maximal degradation (Dmax) on Cytoplasmic-MDM2 and at Chromatin-MDM2 were below 25% and 40 to 80%, respectively. Besides, the “efficacy on cancer cells not exhibiting recruitment of MDM2 to chromatin (cell survival)” value with Hpac/ZR75.1 cells is “not efficient”.

As to `COc1ccc2[nH]c3c(-c4cccc5c4CCCC5)nccc3c2n1.Cl` [Compound 16, 2-methoxy-6-(5,6,7,8-tetrahydronaphthalen-1-yl)-5H-pyrrolo[3,2-b:5,4-c′]dipyridine hydrochloride], at Cytoplasmic-MDM2, the Cytoplasmic-MDM2 degradation entry was “− (<25%: no degradation: indicated“−” in the table)”. Also, in the test with Hpac/ZR75.1 cells, the “efficacy on cancer cells not exhibiting recruitment of MDM2 to chromatin (cell survival)” value is listed as “not efficient”. For the same molecule, the Chromatin-MDM2 degradation result at Chromatin-MDM2 is reported as “+++ (+++≥80%)”.

For `COc1ccc2[nH]c3c(-c4ccc(F)c5ccccc45)nccc3c2n1.Cl` [Compound 17, 6-(4-fluoronaphthalen-1-yl)-2-methoxy-5H-pyrrolo[3,2-b:5,4-c′]dipyridine hydrochloride], the Cytoplasmic-MDM2 degradation result at Cytoplasmic-MDM2 was “− (<25%: no degradation: indicated“−” in the table)”.

Consider `Clc1ccc2[nH]c3c(-c4cccc5ccccc45)nccc3c2n1` [Compound 18, 2-chloro-6-(naphthalen-1-yl)-5H-pyrrolo[3,2-b:5,4-c′]dipyridine], for which the Dmax on Cytoplasmic-MDM2 is below 25%; on Chromatin-MDM2 it was 25 to 40%.

With `Cl.Clc1ccc2[nH]c3c(-c4cccc5ccccc45)nccc3c2n1` [Compound 19, 2-chloro-6-(naphthalen-1-yl)-5H-pyrrolo[3,2-b:5,4-c′]dipyridine hydrochloride], the Cytoplasmic-MDM2 degradation entry on Cytoplasmic-MDM2 is listed as “− (<25%: no degradation: indicated“−” in the table)”. In the test on IB111 cells, this molecule had a negative logarithm of the IC50 (pIC50) above 6.30. Moreover, the “efficacy on cancer cells not exhibiting recruitment of MDM2 to chromatin (cell survival)” value in the test on Hpac/ZR75.1 cells is given as “not efficient”. The Chromatin-MDM2 degradation result at Chromatin-MDM2 is given as “++ (40%≤++<80%)”.

For `COc1ccc2[nH]c3c(-c4cc(F)cc5ccccc45)nccc3c2n1.Cl` [Compound 20, 6-(3-fluoronaphthalen-1-yl)-2-methoxy-5H-pyrrolo[3,2-b:5,4-c′]dipyridine hydrochloride], the greatest degradation seen (Dmax) is below 25% at Cytoplasmic-MDM2 and 40 to 80% on Chromatin-MDM2. In the test with IB111 cells, this molecule had a negative logarithm of the IC50 (pIC50) above 6.30. Also, the “efficacy on cancer cells not exhibiting recruitment of MDM2 to chromatin (cell survival)” value in the test with Hpac/ZR75.1 cells is “not efficient”.

Take `COc1ccc2[nH]c3c(-c4cccc5c(F)cccc45)nccc3c2n1` [Compound 21, 6-(5-fluoronaphthalen-1-yl)-2-methoxy-5H-pyrrolo[3,2-b:5,4-c′]dipyridine]: the values for the Dmax on Cytoplasmic-MDM2 and on Chromatin-MDM2 were below 25% and 25 to 40%, respectively.

For the molecule `COc1ccc2[nH]c3c(-c4cccc5c(F)cccc45)nccc3c2n1.Cl` [Compound 22, 6-(5-fluoronaphthalen-1-yl)-2-methoxy-5H-pyrrolo[3,2-b:5,4-c′]dipyridine hydrochloride], the Cytoplasmic-MDM2 degradation result on Cytoplasmic-MDM2 is reported as “− (<25%: no degradation: indicated“−” in the table)”. In addition, on Chromatin-MDM2, the Chromatin-MDM2 degradation result was “+ (25%≤+<40%)”.

Take `COc1ccc2[nH]c3c(-c4cccc5cccc(F)c45)nccc3c2n1` [Compound 23, 6-(8-fluoronaphthalen-1-yl)-2-methoxy-5H-pyrrolo[3,2-b:5,4-c′]dipyridine hydrochloride]: the Dmax on Cytoplasmic-MDM2 is below 25%; on Chromatin-MDM2, 25 to 40%.

As to `c1ccc2c(-c3nccc4c3[nH]c3ccc(OC5CC5)nc34)cccc2c1` [Compound 24, 2-cyclopropoxy-6-(naphthalen-1-yl)-5H-pyrrolo[3,2-b:5,4-c′]dipyridine], the Dmax was below 25% on Cytoplasmic-MDM2 and at least 80% on Chromatin-MDM2. Also, the pIC50 in the test on IB111 cells was above 6.30. Besides, in the test with Hpac/ZR75.1 cells, the “efficacy on cancer cells not exhibiting recruitment of MDM2 to chromatin (cell survival)” value is listed as “not efficient”.

Consider `Cl.c1ccc2c(-c3nccc4c3[nH]c3ccc(OC5CC5)nc34)cccc2c1` [Compound 25, 2-cyclopropoxy-6-(naphthalen-1-yl)-5H-pyrrolo[3,2-b:5,4-c′]dipyridine hydrochloride], for which the Cytoplasmic-MDM2 degradation entry on Cytoplasmic-MDM2 was “− (<25%: no degradation: indicated“−” in the table)”. Moreover, in the test with Hpac/ZR75.1 cells, the “efficacy on cancer cells not exhibiting recruitment of MDM2 to chromatin (cell survival)” value is reported as “not efficient”. Further, the Chromatin-MDM2 degradation entry on Chromatin-MDM2 is listed as “+++ (+++≥80%)”.

Consider `COc1ccc2[nH]c3c(-c4cccc5ccccc45)nccc3c2c1` [SP-141], for which the “binding to MDM2 protein” value in the test with MDM2 protein is recorded as “directly binding to MDM2 protein”. Also, in the test with MDM2-p53 interaction, the “inhibition of the MDM2-p53 interaction” value is listed as “inhibiting the MDM2-p53 interaction”. Moreover, in test [1], the anticancer activity result is “able to exert anticancer activity in p53 wild type, p53 mutant and p53 null cancer cells”.
